{"source": "paper PMC6508677", "about": "“Identification of druggable small molecule antagonists of the Plasmodium falciparum hexose transporter PfHT and assessment of ligand access to the glucose permeation pathway via FLAG-mediated protein engineering” (PLoS ONE, 2019)", "key": {"PfHT [1]": {"biological_target": "T1, PfHT (Plasmodium falciparum, UniProt Q7KWJ5)", "T1 sequence (Q7KWJ5 1-504)": "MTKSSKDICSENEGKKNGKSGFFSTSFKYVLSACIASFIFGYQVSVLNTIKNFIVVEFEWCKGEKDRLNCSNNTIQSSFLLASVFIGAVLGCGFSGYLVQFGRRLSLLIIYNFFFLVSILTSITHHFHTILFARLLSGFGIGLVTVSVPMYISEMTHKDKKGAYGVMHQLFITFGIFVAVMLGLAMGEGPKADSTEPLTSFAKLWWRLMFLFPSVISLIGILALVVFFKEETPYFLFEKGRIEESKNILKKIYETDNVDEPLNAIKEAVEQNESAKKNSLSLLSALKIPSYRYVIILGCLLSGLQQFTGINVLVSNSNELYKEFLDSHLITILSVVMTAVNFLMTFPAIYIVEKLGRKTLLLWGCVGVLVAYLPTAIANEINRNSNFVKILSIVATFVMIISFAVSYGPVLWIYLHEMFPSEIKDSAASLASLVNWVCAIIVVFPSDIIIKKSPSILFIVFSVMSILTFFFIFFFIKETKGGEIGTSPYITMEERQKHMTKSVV", "assay": "Kinetic analysis (Dixon plot) of zero-trans D-fructose uptake in HEK293PfHT cells", "assay_type": "cell-based", "parameters": "expressed in transfected cells; host or cells: HEK293 (HEK293-FLIP, native hGLUT1 knocked down by shRNA)", "method": "Glucose uptake by P. falciparum was performed essentially as described. P. falciparum strain 3D7 was cultured in 100 mm tissue culture dishes (Techno Plastic Products) in a 2% suspension of human erythrocytes and RPMI 1640 medium until reaching > 7.5% parasitemia. Cells were pelleted via centrifugation and resuspended in RPMI 1640 medium. To determine the uptake of radiolabeled glucose into the parasite, parasites were isolated from infected erythrocytes by permeablization with saponin (0.05 w/v), followed by centrifugation, aspiration of supernatant and washing of the pellet 3X with saline solution (135 mM NaCl, 2 mM KCl, 25 mM HEPES, 0.2 mM glucose and 1 mM MgCl2; pH 7.1) to remove cellular debris. WU-1 or DMSO vehicle were added to 100 μl parasites (resuspended in saline) 5 min prior to the addition of 100 μl [^14C]2-DOG (0.2- μCi/ml final concentration). 2-DG uptake was stopped after 2 min by layering the entire reaction over 300 μl of an oil mixture (5:4 mix of dibutyl phthalate / dinonyl phthalate) in Eppendorf tubes and centrifuged at 15,850 × g for 2 mins. The ratio of the estimated intracellular concentration of radiolabel relative to the extracellular concentration were calculated as described. Uptake of radiolabeled hexose into HEK293 cells was measured in glucose-free HBSS as described previously. Briefly, cells were plated at 400,000 cells/well overnight at 37°C in 24-well plates pre-treated with PEI. After 30-min incubation at 37°C in glucose-free HBSS in the presence of vehicle or increasing concentrations of compound, 2-DG uptake was measured in glucose-free HBSS for 4 min at 37°C. Cultures were washed in ice-cold 1X PBS and lysed in 0.1% Triton X-100 in 1X PBS. Radiolabeled hexose uptake was determined by liquid scintillation counting (Ultima Gold, Thermo Fisher) and normalized to total protein per well. […] Incubation times had been previously determined as being in the linear range of time-dependent radiolabeled hexose uptake (2 min for 2-DG uptake into freed parasites; 2 and 4 min for D-Frc and 2-DG uptake HEK cell lines, respectively). […]"}, "PfHT [2]": {"biological_target": "T1, PfHT", "assay": "[3H]-D-fructose uptake by HEK293 cells overexpressing PfHT", "assay_type": "cell-based", "parameters": "expressed in transfected cells; host or cells: HEK293 (HEK293-FLIP, native hGLUT1 knocked down by shRNA)", "from_the_text": "Generation of HEK293 cells overexpressing PfHT and human GLUTs 1–4 were described elsewhere. Briefly, HEK293 cells were transfected with pcDNA3.1 FLII12Pglu-7006 (Addgene), containing the fluorescence resonance energy transfer (FRET) glucose sensor (HEK293-FLIP) and PfHT, human GLUT1 (hGLUT1), hGLUT2, hGLUT3, hGLUT4, hGLUT5 or hGLUT8 using Optifect (Life Technologies) according to manufacturer’s specifications. To increase retention of GLUT8 at the plasma membrane, the dileucine sorting signal E^7E^8XXXLL was modified to R^7R^8XXXLL as described in [17]. Stable transfectants were selected for G418 and hygromycin resistance to select for FRET sensor and hexose transporter, respectively. HEK293-FLIP cells were also used to generate cells stably transfected with FLAG-tagged PfHT (FTPfHT). FLAG tag ([…]) followed by a triple glycine linker and a tobacco etch virus (TEV) protease site (ENLYFQS) followed by a triple glycine linker was added to the N-terminus of PfHT via PCR [18] using Phusion Hot Start II High-Fidelity DNA Polymerase (Fisher Scientific). Single clones were selected by comparing their abilities to transport glucose as assayed via FRET and radiolabeled hexose uptake. In all cell lines, except for HEK293 cells overexpressing hGLUT1 and hGLUT5, native hGLUT1 was knocked down using shRNA as described elsewhere. Transcript levels of the individual GLUTs expressed in each cell line are as described in [13, 15] and in S1 Fig.\nGlucose uptake by P. falciparum was performed essentially as described. P. falciparum strain 3D7 was cultured in 100 mm tissue culture dishes (Techno Plastic Products) in a 2% suspension of human erythrocytes and RPMI 1640 medium until reaching > 7.5% parasitemia. Cells were pelleted via centrifugation and resuspended in RPMI 1640 medium. To determine the uptake of radiolabeled glucose into the parasite, parasites were isolated from infected erythrocytes by permeablization with saponin (0.05 w/v), followed by centrifugation, aspiration of supernatant and washing of the pellet 3X with saline solution (135 mM NaCl, 2 mM KCl, 25 mM HEPES, 0.2 mM glucose and 1 mM MgCl2; pH 7.1) to remove cellular debris. WU-1 or DMSO vehicle were added to 100 μl parasites (resuspended in saline) 5 min prior to the addition of 100 μl [^14C]2-DOG (0.2- μCi/ml final concentration). 2-DG uptake was stopped after 2 min by layering the entire reaction over 300 μl of an oil mixture (5:4 mix of dibutyl phthalate / dinonyl phthalate) in Eppendorf tubes and centrifuged at 15,850 × g for 2 mins. The ratio of the estimated intracellular concentration of radiolabel relative to the extracellular concentration were calculated as described. Uptake of radiolabeled hexose into HEK293 cells was measured in glucose-free HBSS as described previously. Briefly, cells were plated at 400,000 cells/well overnight at 37°C in 24-well plates pre-treated with PEI. After 30-min incubation at 37°C in glucose-free HBSS in the presence of vehicle or increasing concentrations of compound, 2-DG uptake was measured in glucose-free HBSS for 4 min at 37°C. Cultures were washed in ice-cold 1X PBS and lysed in 0.1% Triton X-100 in 1X PBS. Radiolabeled hexose uptake was determined by liquid scintillation counting (Ultima Gold, Thermo Fisher) and normalized to total protein per well. Uptake data are plotted as percent uptake relative to vehicle-treated cells. Kinetic analyses were performed using the indicated concentrations of substrate and WU-1, with quenching of uptake after 1 min incubation. Incubation times had been previously determined as being in the linear range of time-dependent radiolabeled hexose uptake (2 min for 2-DG uptake into freed parasites; 2 and 4 min for D-Frc and 2-DG uptake HEK cell lines, respectively). Data were fit by least squares nonlinear regression analysis using GraphPad Prism 6.0 software."}}, "note": "Several values for one entry are separate records, joined by “and”; a condition that tells them apart may be missing. Identical values can stand only once."}
{"compound": "Cc1ccc(S(=O)(=O)CCNC(=O)c2c(-c3c(Cl)cccc3Cl)noc2C)cc1", "note": "[WU-1, 3-(2,6-dichlorophenyl)-5-methyl-N-[2-(4-methylbenzenesulfonyl)ethyl]-1,2-oxazole-4-carboxamide]", "values": [{"measurement": "Ki", "setting": "PfHT [1]; Ki (Dixon plot, horizontal intercepts), zero-trans D-fructose uptake, HEK293PfHT, mean", "result": "4.4 ± 0.3", "unit": "µM"}, {"measurement": "Ki", "setting": "PfHT [1]; Ki (µM) from individual Dixon lines, one value per D-fructose concentration line", "result": "5.32 µM and 4.25 µM and 3.83 µM and 4.22 µM"}, {"measurement": "mode of inhibition", "setting": "PfHT [1]; zero-trans D-fructose uptake/hexose influx by PfHT", "result": "non-competitive inhibitor"}, {"measurement": "IC50", "setting": "PfHT [2]; AVE IC50 (µM), PfHT, D-frc Uptake, average of Expt 1-3", "result": 4.99, "unit": "µM"}, {"measurement": "remaining activity at 0.001 µM", "setting": "PfHT [2]; HEK293, 2 min, read-out: D-frc Uptake AVE, PfHT, concentration 0.001 µM, Expt 1-3", "result": 101, "unit": "%"}, {"measurement": "remaining activity at 0.63 µM", "setting": "PfHT [2]; HEK293, 2 min, read-out: D-frc Uptake AVE, PfHT, concentration 0.63 µM", "result": 80.7, "unit": "%"}, {"measurement": "remaining activity at 1.25 µM", "setting": "PfHT [2]; HEK293, 2 min, read-out: D-frc Uptake AVE, PfHT, concentration 1.25 µM", "result": 72.3, "unit": "%"}, {"measurement": "remaining activity at 2.5 µM", "setting": "PfHT [2]; HEK293, 2 min, read-out: D-frc Uptake AVE, PfHT, concentration 2.50 µM", "result": 68.5, "unit": "%"}, {"measurement": "remaining activity at 5 µM", "setting": "PfHT [2]; HEK293, 2 min, read-out: D-frc Uptake AVE, PfHT, concentration 5.00 µM", "result": 49.6, "unit": "%"}, {"measurement": "remaining activity at 10 µM", "setting": "PfHT [2]; HEK293, 2 min, read-out: D-frc Uptake AVE, PfHT, concentration 10.00 µM", "result": 37.9, "unit": "%"}, {"measurement": "remaining activity at 20 µM", "setting": "PfHT [2]; HEK293, 2 min, read-out: D-frc Uptake AVE, PfHT, concentration 20.00 µM", "result": 22.3, "unit": "%"}, {"measurement": "remaining activity at 40 µM", "setting": "PfHT [2]; HEK293, 2 min, read-out: D-frc Uptake AVE, PfHT, concentration 40.00 µM", "result": 15.6, "unit": "%"}, {"measurement": "remaining activity at 80 µM", "setting": "PfHT [2]; HEK293, 2 min, read-out: D-frc Uptake AVE, PfHT, concentration 80.00 µM", "result": 10.7, "unit": "%"}, {"measurement": "remaining activity at 225 µM", "setting": "PfHT [2]; HEK293, 2 min, read-out: D-frc Uptake AVE, PfHT, concentration 225.00 µM", "result": 8.85, "unit": "%"}, {"measurement": "remaining activity at 160 µM", "setting": "PfHT [2]; HEK293, 2 min, read-out: D-frc Uptake AVE, PfHT, concentration […]", "result": 7.62, "unit": "%"}, {"measurement": "IC50", "setting": "PfHT [2]; IC50 (µM), PfHT, D-frc Uptake, single experiments Expt 1-3", "result": "4.57 µM and 6.26 µM and 4.14 µM"}, {"measurement": "IC50", "setting": "PfHT [2]; IC50, D-fructose (Frc) uptake, PfHT cell line", "result": "5 ± 0.7", "unit": "µM"}, {"measurement": "Selectivity Index, Frc, PfHT line itself", "setting": "PfHT [2]; reference value", "result": 1.0}]}
